Common to all, as to assay type: cell-based
A short description of data set [1]: Cytotoxic effect against D-98 cells. As to conditions: human, 10⁻⁴ M, % growth relative to the control. As to the method: (§1) The following compounds were tested for cytotoxic effect at 10⁻⁴ M against human D-98 and mouse L cells. Figures shown are % growth relative to the control.
A short description of data set [2]: Cytotoxic effect against L cells. As to conditions: mouse, 10⁻⁴ M, % growth relative to the control. The protocol:
as §1

In data set [3] the test system is friend leukaemia virus. Kind of data set: Retroviral activity against friend leukaemia virus. As to conditions: read-out: ED₅₀. As to the method:
(§2) • a) Feline Leukaemia Virus Susceptible feline embryo lung fibroblasts (FLF-3) were seeded onto multiwell slides (10⁵ cells/ml, 0.05 ml/well) with Dulbecco-modified Eagle's essential medium (DME) and incubated at 37 °C overnight. Each of the 32 wells was then infected with 40-60 focus forming units (ffu) of feline leukaemia virus (FeLV) for one hour after which the medium was replaced with fresh DME with varying concentrations of 2,6-diaminopurine-9-β-D-2',3'-dideoxyribofuranoside per 4 wells. Concentrations were 0, 1.0, 10, 50, 100, 200 and 400 »M. After 3 days incubation at 37 °C, the cultures were assayed by the indirect fluorescent antigen test for the production of FeLV. […]. […] This protective effect was seen on both days 10 and 13 of the experiment. • c) Friend Leukaemia virus The compounds have been tested for retroviral activity against friend leukaemia virus with the following results.

The test system of data set [4] is HIV. Kind of data set: Block of HIV infection / cytopathic effect in cloned T4 positive T helper lymphocytes (cell survival). As to conditions: after 10 days in culture (protective effect seen on days 10 and 13), up to 5000 virions/cell, untreated infected cells 8-fold decreased. As to the method: as §2
On the technique in general: Protection from cytopathic effect is a common read-out in antiviral testing.

For data set [5], the system named is feline leukaemia virus (FeLV). The experiment in a line: Feline leukaemia virus production in infected FLF-3 fibroblasts, indirect fluorescent antigen test. As to conditions: FLF-3 cells; for inhibition: 3 days incubation. As to the method:
as §2

The text below walks through data of patent EP0206497B1, “Therapeutic nucleosides and their preparation” (priority 1985, dated 1986).

Each structure is given as a SMILES string.

With `Nc1nc2c(ncn2[C@H]2CC[C@@H](CO)O2)c(=O)[nH]1` [2',3'-dideoxyguanosine, reference compound], the results for the activity at 100 µM in data set [1] and in data set [2] were 87% and 93%, respectively. In data set [3], the EC50 was determined as 25.9 µM.
One may read the inhibition as the share of the control response that was lost under treatment. Lower therefore signals a weak effect. Regarding `Nc1nc(N)c2ncn([C@H]3CC[C@@H](CO)O3)c2n1` [2,6-Diaminopurine-9-β-D-2',3'-dideoxyribofuranoside], the activity at 100 µM in data set [1] came out at 97%; in data set [2], 41%. In addition, the “viral cytopathic effects in infected T cells” value in data set [4] (2 »M) and in data set [4] (10 »M) was “no viral cytopathic effects were seen” in each case. Also, the EC50 in data set [3] amounted to 22.4 µM. The inhibition in data set [5] (0.1 »M) turned out to be 31%; in data set [5] (10 »M), 45%; in data set [5] (50 »M), 60%. For the same compound, the “production of FeLV” value in data set [5] (concentrations of 100 »M and above, 3 days incubation at 37°C) is recorded as “Complete absence of FeLV”.
Consider `Nc1ncc2ncn([C@H]3CC[C@@H](CO)O3)c2n1` [2-Aminopurine-9-β-D-2',3'-dideoxyribofuranoside], for which the activity at 100 µM in data set [1] is 97%; in data set [2], 107%.
